What was measured:
[1] = Dissolving and recrystallization behavior of active ingredient in 1,3-bis(1-pyrrolidonyl)butane (DHVP) test system; conditions: for RT: solution in DHVP: room temperature; for Sol. at (temperature at which solution forms): heated; for solubility in DHVP: comparison
From the text: The ratios of the amounts can in principle be chosen without restriction and naturally depend essentially on the properties of the active ingredient. However, it is advisable to choose the concentration ranges in the test system so that they correspond to active ingredient contents typical of extruded forms, that is to say generally from 0.1 to 70, preferably 10 to 30% by weight of active ingredient, based on the total weight of the test system. However, it is also possible in the individual case to prepare solutions or dispersions with a concentration of 60% by weight or even higher. It is preferred to carry out test series with increasing active ingredient contents. The active ingredient(s) are weighed out, mixed with the appropriate amounts of DHVP and preferably stirred, normally with a typical laboratory magnetic stirrer at 5 to 200 rpm. […] The heating is preferably carried out so as to correspond approximately to the heating rate in a subsequent melt formulation, that is to say at 0.5 to 5° C./min. The test system is preferably heated to a maximum of 140° C. However, it is also possible in the individual case to heat to the boiling point of DHVP. The test system is then allowed to cool to room temperature.
The prepared test systems are assessed spectroscopically. […] The recrystallization behavior is also assessed. The recrystallization behavior immediately after cooling to room temperature is an important criterion especially for test systems in which the active ingredient has been induced to dissolve by heating.
leaving to stand at room temperature for 24 hours
Investigation is always of whether the active ingredient has recrystallized out of the solution.

[2] = Melt extrudate with PVP K 30: formation of solid solution; assay type: physicochemical; conditions: for Extrudate: solution (solid): 30% by weight in PVP, melt extrudate with PVP K 30; for solid solution with PVP: comparison
[3] = Solubility in DMSO (comparison)

Row | SMILES | Recryst. (recrystallization) ([1]; 10% by weight in DHVP) | RT: solution in DHVP ([1]; 10% by weight in DHVP) | Recryst. after (time to recrystallization) ([1]; 30% by weight in DHVP) [h] | Sol. at (temperature at which solution forms) ([1]; 30% by weight in DHVP) | RT: solution in DHVP ([1]; 30% by weight in DHVP) | Extrudate: solution (solid) [2] | Sol. at (temperature at which solution forms) ([1]; 10% by weight in DHVP) | Recryst. (recrystallization) ([1]; 30% by weight in DHVP) | solubility in DHVP [1] | solid solution with PVP [2] | solubility in DMSO (dimethyl sulfoxide) [3]
1 | CCS(=O)(=O)Oc1ccc2c(C)c(C)c(=O)oc2c1 [Esuprone] | Recryst.: − | RT: + | 20 | Sol. at 70 °C | RT: − | + |  |  |  |  | 
2 | CC(C)Cc1ccc(C(C)C(=O)O)cc1 (stereo not shown) [Ibuprofen] | Recryst.: − | RT: + |  |  | RT: + | + |  | Recryst.: − | soluble | solid solution | soluble
3 | Cn1c(=O)c2[nH]cnc2n(C)c1=O [Theophylline] |  |  |  |  |  |  |  |  | insoluble | no solid solution | soluble
4 | COc1ccc(CCN(C)CCCC(C#N)(c2cc(OC)c(OC)c(OC)c2)C(C)C)cc1OC.Cl (stereo not shown) [Gallopamil HCl] | Recryst.: − | RT: + | 96 | Sol. at 60 °C | RT: − | + | Sol. at 60 °C |  |  |  | 

Now from value to molecule, other results behind:

Row | Recryst. (recrystallization) ([1]; 10% by weight in DHVP) | RT: solution in DHVP ([1]; 10% by weight in DHVP) | Recryst. after (time to recrystallization) ([1]; 30% by weight in DHVP) [h] | Sol. at (temperature at which solution forms) ([1]; 30% by weight in DHVP) | RT: solution in DHVP ([1]; 30% by weight in DHVP) | Extrudate: solution (solid) [2] | Sol. at (temperature at which solution forms) ([1]; 10% by weight in DHVP) | Recryst. (recrystallization) ([1]; 30% by weight in DHVP) | SMILES | solubility in DHVP [1] | solid solution with PVP [2] | solubility in DMSO (dimethyl sulfoxide) [3]
5 | Recryst.: − | RT: − |  | Sol. at 90 °C | RT: − | + | Sol. at 90 °C | Recryst.: − | CC(=O)Nc1ccc(O)cc1 [Paracetamol] |  |  | 
6 | Recryst.: − | RT: + | 40 | Sol. at 70 °C | RT: − | + |  |  | CN(C)CCOC1=Cc2ccccc2Sc2ccc(Cl)cc21 [Zotepine] |  |  | 

— US6599931B1, “Test system for characterizing the compatibility of bioactive substances and polyvinylpyrrolidone” (Abbott GmbH & Co. KG, priority 1998, dated 2003)
